Laboratory results reported in US6649615B2, “Method for inhibiting fibrogenesis” (Institute National de la Sante et de la Recherche Medicale …, priority 2002, dated 2003).
“And” between values parts separate entries of the source, which are not always exact repeats. Equal entries are not always repeated. “Also recorded” adds a separate entry of the source.

Experiments:
[1] = system: TIMP-1 mRNA; assay: TIMP-1 mRNA expression by cultured HSC-T6 cells (Northern blot); format: cell-based, rat; conditions: mean ±SEM
Description: (§1) The inventors used an established rat HSC cell line, named HSC-T6.
TIMP-1 increases fibrosis deposition by inhibiting its degradation by matrix metalloproteinases. The inventors observed in example 1 that noradrenergic antagonism in vivo led to a drastic decrease in liver TIMP-1 mRNA expression. They have further measured the effect of norepinephrin on TIMP-1 mRNA expression by cultured HSC-T6 cells. Total RNA was purified from cells exposed for 3, 6, or 24 hours to 100 nM norepinephrin. The RNAs were analyzed by Northern blot with a probe specific for rat TIMP-1. The blots were subsequently dehybridized and rehybridized with a probe to rat glyceraldehyde 3-phosphate dehydrogenase to ensure proper loading and transfer. TIMP-1/GADPH ratios were calculated and the results are shown respective to control values without norepinephrin.
Results are expressed as TIMP-1/GAPDH ratios relative to control values (mean ±SEM)

[2] = system: CCl4-induced hepatocyte necrosis; assay: Acute toxicity of CCl4: liver function tests and area of necrosis; conditions: for effect on the acute toxicity of CCl4 (biological tests and necrosis area): co-treatment with CCl4 vs CCl4 alone
Description: Routine liver function blood tests (bilirubin, alkaline phosphatase and transaminases) were performed on an automated analyzer.
Thus, groups of animals treated with 2 administrations of CCl4 with or without 2 injections of OHDA were sacrificed 24 hours after the second CCl4 treatment and evaluated for acute toxicity of CCl4 by serum tests and measurement of the area of necrosis on liver sections.
The percentage of necrosis area was determined on hematoxylin and eosin stained sections by image analysis.

[3] = system: HSC-T6; assay: Hepatic stellate cell proliferation assay (tetrazolium dye reduction); format: cell-based, rat
Description: FIG. 3: Effect of norepinephrin on hepatic stellate cell (HSC) proliferation. Cells were exposed to increasing concentrations of norepinephrin for 2 days. Cell number was evaluated through the measurement of the reduction of the dye 3-(4,5-dimethylthiazol-2yl)-2,5 diphenyltetrazolium.
FIG. 4: Effect of prazosin on hepatic stellate cell proliferation induced by norepinephrin Cells were exposed to increasing concentrations of prazosin, either alone (open symbols), or in the presence of 100 nM norepinephrin (closed symbols). Cell number was evaluated through the measurement of the reduction of the dye 3-(4,5-dimethylthiazol-2yl)-2,5 diphenyltetrazolium. The marginal proliferation index was calculated as: (ODexperimental sample—ODday 0)/(ODcontrol—ODday 0), where OD is the optical density measured at the end of the experiment.
as §1
Cells were exposed to increasing concentrations of norepinephrin for 2 days. In some experiments, cells were also exposed to increasing concentrations of prazosin. Cell number was evaluated through the measurement of the reduction of the dye 3-(4,5-dimethylthiazol-2yl)-2,5 diphenyltetrazolium.

[4] = system: CCl4-induced liver fibrosis; assay: CCl4-induced liver fibrosis in rats, fibrosis area by Picro Sirius red image analysis; format: in vivo, rat; conditions: for area of fibrosis (% of field area): control 0.63±0.06%
Description: (§2) All experiments were carried out using accepted ethical guidelines. Male Wistar rats (Charles River, St Aubin-les-Elbeuf, France) weighing 200-250 g were used in this study. The animals had free access to food and drinking water. Fibrosis was induced by giving CCl4 (Sigma, St Quentin-Fallavier, France) mixed with olive oil (1vol: 5vol.) at 0.375 ml/kg body weight by gavage, three times a week, on Monday, Wednesday and Friday. Control animals for CCl4 received only olive oil.
(§3) Sympathetic chemical denervation was performed with OHDA (Sigma). OHDA was freshly prepared in saline containing 0.4% (w/v) ascorbic acid (Sigma). OHDA was administered intraperitoneally, twice a week on 2 consecutive days (Monday and Tuesday) at the dose of 25 mg/kg body weight. The first injection was given 4 to 6 hours before the first administration of CCl4. Control animals for OHDA received only the solvent.
(§4) Thus, 4 groups including each 6 animals could be distinguished. Group I: olive oil and saline alone; group II: olive oil and OHDA alone; group III: CCl4 with saline; group IV: CCl4 with OHDA. These animals were treated for 2 weeks. In another series of experiments, animals were similarly treated for 6 weeks. In that case, both control groups included only 3 animals.
Finally, other animals were treated with the specific α1-adrenergic receptor antagonist prazosin (Sigma), given in drinking water daily at a dose of 50 mg/l during 2 weeks. Group V animals received CCl4 alone, while group VI received CCl4 with prazosin. Both groups included 6 animals.
At the designated time points, the animals were sacrificed. Liver samples were taken from several lobes and either snap frozen in liquid nitrogen, cryopreserved in OCT compound (Sakura, Torrance, Calif.) and snap-frozen in liquid nitrogen-cooled isopentane, or fixed in buffered formalin.
This was done on formalin-fixed, paraffin-embedded sections stained with Picro Sirius red, using image analysis. All samples from a series of experiments were stained simultaneously. Quantitative data were obtained using a computerized image analysis system (Biocom 500, Les Ulis, France) including a personal computer (DESK PRO, Compaq, Houston, Tex.), a CCD video camera (Sony, Japan) and a Zeiss microscope (Jena, Germany). Sampling corresponded to 3 sections from 3 different lobes. The analysis was performed on an average of 50 fields per section using the ×4 objective. The whole surface of the sections was used for analysis with the exception of large centrolobular veins (diameter ≧150 μm) and large portal tracts. Fibrosis deposition was expressed as a percentage of stained areas on the total measured area.
Interassay variation was calculated in preliminary experiments and found to be 1.4%. When the percentage of reduction in areas of fibrosis consecutive to treatments was calculated, control values were first substracted.

[5] = system: type I collagen mRNA; assay: Liver type I collagen transcripts (quantitative RT-PCR, in situ hybridization); format: in vivo, rat
Description: In situ hybridization was performed on frozen sections according to a protocol described earlier, using [α^33P]UTP labeled riboprobes (Faouzi et al., 1999). The probe used was a 900 bp fragment of the rat α2(I) collagen cDNA, (Genovese et aL, 1984). The cDNA was subcloned into the pGEM5Z f(+) vector. Antisense and sense probes were generated by in vitro transcription. Their size was reduced to ˜250 nt by alkaline hydrolysis.
Total RNA was prepared from liver samples by the method of Chomczynski and Sacchi (1987), modified as described by Puissant and Houdebine (1990).
Type I collagen specific transcripts were quantified by a technique of quantitative RT-PCR, that has previously been described in detail (Bieche et al., 2000). Each sample was normalized on the basis of its expression of the RPLPO gene (also known as 36B4, encoding human acidic ribosomal phosphoprotein P0).

[6] = system: TIMP-1 mRNA; assay: Liver TIMP-1 mRNA by Northern blot (TIMP-1/GAPDH ratio); format: in vivo, rat
Description: […] The blot was then stripped and rehybridized with a rat GAPDH (glyceraldehyde-3-phosphate dehydrogenase) probe.
[…] of total RNA extracted from rat liver was analyzed by Northern blot. RNAs were separated on a 0.8% agarose gel containing ethidium bromide in MOPS buffer. Running buffer and gel contained 0.2 M formaldehyde. The RNAs were transferred onto a positively charged nylon membrane (Amersham, Orsay, France) by downward capillary transfer in running buffer. Examination of the stained membrane under UV light was used to confirm the quality of loading and transfer. A rat TIMP-1 cDNA probe was labeled with [α^32P]dCTP by random priming using the Ready-to-go kit from Roche (Meylan, France). Hybridization was performed using the Ultrahyb solution (Ambion, Austin, Tex.). The blots were washed in stringent conditions (0.1×SSC, 0.1% SDS at 65° C.). To further confirm the loading and transfer accuracy, blots were rehybridized with a rat GAPDH cDNA probe (Fort et al., 1985). The signals were quantified with the Kodak 1 D Image Analysis Software (Eastman Kodak Company, Rochester, N.Y.). Results are presented as TIMP-1/GAPDH ratios.

[7] = Vital parameters and liver function tests after 2 weeks of treatment; format: in vivo, rat; conditions: for Bilirubin / ALAT / ASAT / Alkaline phosphatase / LW/BW ratio (X100) / Liver weight / Body weight: 2 weeks; for Bilirubin / ALAT / ASAT / Alkaline phosphatase: serum
Description: as §2, §3, §4
Serum samples were also collected.

[8] = system: liver norepinephrin stores; assay: Liver catecholamine (norepinephrin) content by HPLC with electrochemical detection; format: in vivo, rat; conditions: for Norepinephrin content in liver: 2 weeks, mean ± 1 SD; for decrease in the liver norepinephrin content: OHDA 2 weeks
Description: as §3, §4
Extraction was performed on liver homogenates (10% w/v, in 0.05 M ice-cold Tris-HCl buffer at pH 7.4) according to the method of Smedes et al. using […] as internal standard (Smedes et al., 1982). Extracts were analyzed by HPLC with electrochemical detection.

## TGFβ1: transforming growth factor β1, a major agonist of liver fibrogenesis
[1]; TGFβ1 0,1 ng/ml, 3 h
  TIMP-1/GAPDH ratio relative to control: 1,56 ± 0,20
[1]; TGFβ1 0,1 ng/ml, 6 h
  TIMP-1/GAPDH ratio relative to control: 1,38 ± 0,11
[1]; TGFβ1 0,1 ng/ml, 24 h
  TIMP-1/GAPDH ratio relative to control: 1,33 ± 0,09

## COc1cc2nc(N3CCN(C(=O)c4ccco4)CC3)nc(N)c2cc1OC [prazosin, 1-(4-amino-6,7-dimethoxy-2-quinazolinyl)-4-(2-furanylcarbonyl) piperazine]
[2]
  effect on the acute toxicity of CCl4 (biological tests and necrosis area): did not decrease
[3]; in the presence of 100 nM norepinephrin, 3 independent experiments in quadruplicate
  effect on mitogenic effect of norepinephrin on HSC-T6: abolished
[3]; without norepinephrin
  effect on HSC-T6 proliferation alone: no effect
[4]; CCl4 with prazosin 50 mg/l in drinking water (group VI), 2 weeks, CCl4 alone 2.35±0.41%
  fibrosis area (histomorphometry): 0.89±0.21%
[4]; prazosin with CCl4 vs CCl4 alone, 2 weeks
  decrease in fibrosis area: 83%
[5]; CCl4 with prazosin, 2 weeks
  type I collagen transcripts by in situ hybridization: large decrease in transcripts

## NC[C@H](O)c1ccc(O)c(O)c1 [norepinephrin]
[1]; Norepinephrin 100 nM, 3 h
  TIMP-1/GAPDH ratio relative to control: 1,30 ± 0,15
[1]; Norepinephrin 100 nM, 6 h
  TIMP-1/GAPDH ratio relative to control: 1,38 ± 0,13
[1]; Norepinephrin 100 nM, 24 h
  TIMP-1/GAPDH ratio relative to control: 1,15 ± 0,18
[3]; 2 days exposure
  concentration at plateau of HSC-T6 proliferation increase: 100 nM
[3]; Rattus norvegicus, HSC-T6, 48 h, 2 days exposure, mean of 5 independent experiments in triplicate, read-out: Half-maximal effect on HSC-T6 proliferation
  EC50: 25 nM

## NCCc1cc(O)c(O)cc1O [OHDA, 6-hydroxydopamine]
[2]; CCl4 + OHDA, 96 hs, hematoxylin and eosin sections, CCl4 alone 4.6 ± 2.3
  Necrosis area: 3.3 ± 1.0%
[2]; CCl4 + OHDA, 96 hs, CCl4 alone 269 ± 117
  ALAT: 221 ± 71 IU.I^−1
[2]; CCl4 + OHDA, 96 hs, CCl4 alone 314 ± 111
  Alkaline phosphatase: 240 ± 117 IU.I^−1
[2]; CCl4 + OHDA, 96 hs, CCl4 alone 452 ± 152
  ASAT: 342 ± 62 IU.I^−1
[2]
  effect on the acute toxicity of CCl4 (biological tests and necrosis area): no statistically significant difference
[4]; CCl4 with OHDA (group IV), 2 weeks, CCl4 alone 2.86±0.78%
  area of fibrosis (% of field area): 1.54±0.29%
[4]; CCl4 with OHDA, 6 weeks, CCl4 alone 18.82±1.79%
  area of fibrosis: 12.38±1.89%
[4]; OHDA alone (group II), 2 weeks
  area of fibrosis (% of field area): 0.61±0.08%
[4]; OHDA alone, 6 weeks
  area of fibrosis: 0.47±0.03%
[4]; OHDA with CCl4 vs CCl4 alone, 2 weeks, control values subtracted
  reduction in the area of fibrosis: 60% and 60.2%
[4]; OHDA with CCl4 vs CCl4 alone, 6 weeks
  decrease of fibrosis area: 36%
[6]; CCl4 with OHDA (group IV), 2 weeks
  effect on CCl4-induced increase of liver TIMP-1 mRNA (TIMP-1/GAPDH ratio): abrogated; also recorded: normalization of the TIMP-1/GAPDH ratio back to control values
[6]; CCl4 with OHDA, 6 weeks
  effect on CCl4-induced increase of liver TIMP-1 mRNA: greatly reduced
[6]; CCl4 with OHDA, 6 weeks, all animals, not statistically significant
  reduction in the TIMP-1/GAPDH ratio: 45%
[6]; CCl4 with OHDA, 6 weeks, one animal with very high value removed, p=0.05
  reduction in the TIMP-1/GAPDH ratio: 57%
[5]; CCl4 together with OHDA, 6 weeks, CCl4 alone 477.2±91.0, control 16.0±5.9
  type I collagen mRNA level (quantitative RT-PCR): 364.5±68.7 arbitrary units
[5]; CCl4 with OHDA vs CCl4 only, 6 weeks
  decrease in type I collagen mRNA level: 24%
[7]; CCl4 with OHDA (group IV), CCl4 alone 3.2 ± 0.7
  Bilirubin: 5.0 ± 1.4 μM.I^−1
[7]; CCl4 with OHDA (group IV), CCl4 alone 130 ± 98
  ALAT: 97 ± 37 IU.I^−1
[7]; CCl4 with OHDA (group IV), CCl4 alone 173 ± 82
  ASAT: 137 ± 29 IU.I^−1
[7]; CCl4 with OHDA (group IV), CCl4 alone 276 ± 53
  Alkaline phosphatase: 225 ± 58 IU.I^−1
[7]; CCl4 with OHDA (group IV), CCl4 alone 4.6 ± 0.7
  LW/BW ratio (X100): 4.1 ± 0.6
[7]; CCl4 with OHDA (group IV), CCl4 alone 13.7 ± 1.7
  Liver weight: 12.5 ± 1.0 g
[7]; CCl4 with OHDA (group IV), CCl4 alone 298 ± 12
  Body weight: 293 ± 6 g
[7]; OHDA alone (group II)
  gross toxic effects of prolonged treatment: No gross toxic effects
  histologic aspect of the livers: strictly normal
[7]; OHDA alone (group II), saline 4.5 ± 1.4
  Bilirubin: 2.3 ± 0.5 μM.I^−1
[7]; OHDA alone (group II), saline 43 ± 4
  ALAT: 50 ± 6 IU.I^−1
[7]; OHDA alone (group II), saline 120 ± 9
  ASAT: 94 ± 18 IU.I^−1
[7]; OHDA alone (group II), saline 178 ± 48
  Alkaline phosphatase: 274 ± 46 IU.I^−1
[7]; OHDA alone (group II), saline 3.7 ± 0.2
  LW/BW ratio (X100): 4.4 ± 0.2
[7]; OHDA alone (group II), saline 12.9 ± 1.0
  Liver weight: 16.0 ± 1.1 g
[7]; OHDA alone (group II), saline 344 ± 17
  Body weight: 365 ± 14 g
[8]; CCl4 + OHDA (group IV), CCl4 alone group III 29.1 ± 10.6
  Norepinephrin content in liver: 3.6 ± 1.5 ng/g of wet liver tissue
[8]; CCl4-treated animals
  decrease in the liver norepinephrin content: 87.6%
[8]; OHDA alone (group II), 25 mg/kg i.p. twice a week, saline group I 47.6 ± 9.9
  Norepinephrin content in liver: 6.0 ± 3.2 ng/g of wet liver tissue
[8]; non CCl4-treated animals
  decrease in the liver norepinephrin content: 87.4%
